Values quoted from earlier work, collected in US11701355B2, “Levosimendan for treating pulmonary hypertension with heart failure with preserved ejection fraction (PH-HFpEF)” (Tenax Therapeutics, Inc., priority 2019, dated 2023).

Experiments:
[1] = system: phosphodiesterase-3 (PDE3); conditions: in vitro; cited from earlier work
PDE4 = conditions: in vitro; cited from earlier work
[2] = system: whole cardiomyocytes and isolated contractile apparatus preparations; conditions: cited from earlier work
[3] = heart failure subjects; cited from earlier work
patients with PH-HFpEF = conditions: in vivo; cited from earlier work
[4] = system: patients with left heart disease; conditions: in vivo; cited from earlier work
PH-HFpEF patients [5] = conditions: acute; cited from earlier work
PH-HFpEF patients [6] = conditions: after 12 weeks, 52 patients; cited from earlier work
patients with HFpEF = conditions: long term treatment, 216 patients; cited from earlier work
HFpEF patients [7] = conditions: inhaled 3 times a day for 4 weeks; cited from earlier work
HFpEF patients [8] = conditions: in vivo; cited from earlier work
HFpEF patients [9] = conditions: in vivo; cited from earlier work; remark: listed apart in the source

CC(=O)Nc1ccc(C2=NNC(=O)C[C@H]2C)cc1 [OR-1896, (R)-N-(4-(4-methyl-6-oxo-1,4,5,6-tetrahydropyridazin-3-yl)phenyl) acetamide]
potency in the inhibition of PDE3 compared with levosimendan [1]: profoundly less potent | potency in the inhibition of PDE4 compared with levosimendan (PDE4): profoundly less potent | inotropic effects compared with levosimendan [2]: equipotent to levosimendan | half-life [3]: 70 to 80 h

COc1ccccc1Oc1c(NS(=O)(=O)c2ccc(C(C)(C)C)cc2)nc(-c2ncccn2)nc1OCCO [bosentan]
clinical outcomes compared with placebo (patients with PH-HFpEF): worse clinical outcomes | six minute walk test or echocardiographic evaluation of pulmonary hypertension (patients with PH-HFpEF): no improvements

CCCNS(=O)(=O)Nc1ncnc(OCCOc2ncc(Br)cn2)c1-c1ccc(Br)cc1 [macitentan]
hemodynamic parameters (pulmonary vascular resistance, mean pulmonary arterial pressure, pulmonary artery wedge pressure) [4]: no change

COC(=O)N(C)c1c(N)nc(-c2nn(Cc3ccccc3F)c3ncccc23)nc1N [riociguat]
TPG or pulmonary vascular resistance (PH-HFpEF patients [5]): no change | primary outcome, mean pulmonary arterial pressure (PH-HFpEF patients [5]): not achieved

CCCc1nn(C)c2c(=O)[nH]c(-c3cc(S(=O)(=O)N4CCN(C)CC4)ccc3OCC)nc12 [sildenafil]
mPAP (PH-HFpEF patients [6]): no change | six-minute walk time, clinical status, or quality of life (patients with HFpEF): failed to improve

O=NO [sodium nitrite]
primary endpoint of peak oxygen consumption during cardiopulmonary exercise; secondary endpoints (HFpEF patients [7]): unable to demonstrate any improvement

COC(=O)Nc1c(N)nc(-c2nn(Cc3ccccc3F)c3ncc(F)cc23)nc1N [vericiguat]
primary endpoints (HFpEF patients [8]): no significant changes

sacubitril/valsartan
reduction in the primary endpoint (HFpEF patients [9]): not statistically significant
